SMILES strings stand for the structures. Where two headings read alike, the source gives them in different places.

This note sets out measurements from patent publication US20170210741A1, “Benzimidazole Compounds, Use As Inhibitors of WNT Signaling Pathway in Cancers, and Methods for Preparation Thereof” (Southern Research Institute, priority 2016, published 2017).

Holding throughout (assay type): cell-based
The test system of one experiment is S2VP10. Briefly: In vitro cell viability assay (Cell Titer Glo), pancreatic cancer S2VP10. The note with it: 72 h. The procedure: (§1) Breast cancer SUM159 was obtained from Asterand and grown according to supplier's recommendation. All other cell lines were obtained from ATCC and cultured in standard cell culture conditions with complete cell culture medium containing 10% FBS.
(§2) Cancer cells were seeded into optically clear tissue culture-treated black 96-well plates (for adherent cells) or low-attachment 96-well plates (for cancer stem cells) at 2,000-5000 cells/50 μL of media per well. The cells were treated with Wnt inhibitors at 0.1 to 10 μM for 72 h. Cell viability was measured by the Cell Titer Glo Assay from Promega.
On the technique in general: In ATP-based viability assays light output follows the ATP content of the culture.

The subject of a further experiment is Suit-2. Briefly: In vitro cell viability assay (Cell Titer Glo), pancreatic cancer Suit-2. As to conditions: 72 h. As to the method: as §1, §2
The next experiment has as its system Wnt signaling. Briefly: Wnt signaling reporter assay (Super8XTOPFlash luciferase) in LRP6-expressing HEK293 cells. As to conditions: 24 h treatment, luciferase normalized to β-galactosidase. The procedure:
HEK293 cells were plated into 24-well plates. After overnight culture, the cells were transiently transfected with 0.06 μg of the Super8XTOPFlash luciferase construct, 0.06 μg of β-galactosidase-expressing vector, and 0.06 μg of pCS-Myc-hLRP6 or control vector. After 24 h incubation, cells were treated with each individual compound in triplicate for 24 h. Cells were then lysed, and the luciferase and β-galactosidase activities were determined by the luciferase assay system (Promega) and β-galactosidase assay system (Promega), respectively. The luciferase activity was normalized to the β-galactosidase activity.
Table 2 below illustrates the effects of the disclosed compounds on Wnt signaling in LRP6-expressing HEK293 cells.

Setting [1] is: S2VP10, CSC enriching serum free medium, non-adherent plates, read-out: Cell viability (IC50) S2VP10 CSC.
Setting [2] is: S2VP10, adherent, complete medium 10% FBS, read-out: Cell viability (IC50) S2VP10 Adherent.
Setting [3] is: Suit-2, CSC enriching serum free medium, non-adherent plates, read-out: Cell viability (IC50) Suit-2 CSC.
[4] abbreviates: Suit-2, adherent, complete medium 10% FBS, read-out: Cell viability (IC50) Suit-2 Adherent.

With `Clc1cc2nc(-c3ccc(N4CCNCC4)cc3)[nH]c2cc1Cl` [Compound 13, 5,6-dichloro-2-(4-(piperazin-1-yl)phenyl)-1H-benzo[d]imidazole], the IC50 in the experiment with S2VP10 (setting [1]), in the experiment with S2VP10 (setting [2]), in the experiment with Suit-2 (setting [3]) and in the experiment on Suit-2 (setting [4]) was above 10000 nM each time.

For `CCN1CCN(c2ccc(-c3nc4cc(Cl)c(Cl)cc4[nH]3)cc2)CC1` [Compound 14, 5,6-dichloro-2-(4-(4-ethylpiperazin-1-yl)phenyl)-1H-benzo[d]imidazole], the IC50 in the experiment with S2VP10 (setting [1]) was 1330 nM; with S2VP10 (setting [2]), above 10000 nM; with Suit-2 (setting [3]) it was 1230 nM; with Suit-2 (setting [4]) it was above 10000 nM.

Consider `Clc1cc2nc(-c3ccc(-n4ccnc4)cc3)[nH]c2cc1Cl` [Compound 15, 2-(4-(1H-imidazol-1-yl)phenyl)-5,6-dichloro-1H-benzo[d]imidazole], for which the IC50 with S2VP10 (setting [1]) was 1340 nM; in the experiment with S2VP10 (setting [2]) it was above 10000 nM; in the experiment on Suit-2 (setting [3]) it was 1810 nM; in the experiment on Suit-2 (setting [4]), above 10000 nM.

Take `Cc1nccn1-c1ccc(-c2nc3cc(Cl)c(Cl)cc3[nH]2)cc1` [Compound 16, 5,6-dichloro-2-(4-(2-methyl-1H-imidazol-1-yl)phenyl)-1H-benzo[d]imidazole]: the IC50 in the experiment with S2VP10 (setting [1]), with S2VP10 (setting [2]), in the experiment with Suit-2 (setting [3]) and in the experiment on Suit-2 (setting [4]) was above 10000 nM in each case.

With `CN1CCN(c2ccc(-c3nc4ccc(C(F)(F)F)cc4[nH]3)cc2)CC1` [Compound 18, 2-(4-(4-methylpiperazin-1-yl)phenyl)-6-(trifluoromethyl)-1H-benzo[d]imidazole], the “IC50 (effects on Wnt signaling)” value with Wnt signaling is on record as “Inactive”. Also, the IC50 in the experiment on S2VP10 (setting [1]) is 1520 nM; in the experiment with S2VP10 (setting [2]), 7160 nM; with Suit-2 (setting [3]) it was 760 nM; with Suit-2 (setting [4]), above 10000 nM.

Take `CN1CCN(c2ccc(-c3nc4ccc(F)cc4[nH]3)cc2)CC1` [Compound 19, 6-fluoro-2-(4-(4-methylpiperazin-1-yl)phenyl)-1H-benzo[d]imidazole]: the “IC50 (effects on Wnt signaling)” value with Wnt signaling is recorded as “Inactive”. Also, the IC50 is 350 nM in the experiment on S2VP10 (setting [1]), 790 nM in the experiment with S2VP10 (setting [2]), 330 nM in the experiment on Suit-2 (setting [3]) and 1340 nM with Suit-2 (setting [4]).

Consider `CN1CCN(c2ccc(-c3nc4ccncc4[nH]3)cc2)CC1` [Compound 20, 2-(4-(4-methylpiperazin-1-yl)phenyl)-3H-imidazo[4,5-c]pyridine], for which the “IC50 (effects on Wnt signaling)” value with Wnt signaling is listed as “Inactive”. In addition, the IC50 with S2VP10 (setting [1]) was found to be 180 nM; with S2VP10 (setting [2]), 140 nM; with Suit-2 (setting [3]), 210 nM; with Suit-2 (setting [4]), 290 nM.

On to `Cn1c(-c2ccc(OC(F)(F)F)cc2)nc2cc(Cl)c(Cl)cc21` [Compound 23, 5,6-dichloro-1-methyl-2-(4-(trifluoromethoxy)phenyl)-1H-benzo[d]imidazole], for which the “IC50 (effects on Wnt signaling)” value in the experiment on Wnt signaling is recorded as “Inactive”.

With `Fc1cc2nc(-c3ccc(OC(F)(F)F)cc3)[nH]c2cc1Cl` [Compound 24, 6-chloro-5-fluoro-2-(4-(trifluoromethoxy)phenyl)-1H-benzo[d]imidazole], the “IC50 (effects on Wnt signaling)” value with Wnt signaling is “Inactive”.

With `Fc1cc2[nH]c(-c3ccc(OC(F)(F)F)cc3)nc2cc1C(F)(F)F` [Compound 25, 6-fluoro-2-(4-(trifluoromethoxy)phenyl)-5-(trifluoromethyl)-1H-benzo[d]imidazole], the “IC50 (effects on Wnt signaling)” value in the experiment with Wnt signaling was “Inactive”. Also, the IC50 in the experiment with S2VP10 (setting [1]) worked out at 2770 nM; in the experiment on S2VP10 (setting [2]), 7200 nM; with Suit-2 (setting [3]) it was 2050 nM; in the experiment with Suit-2 (setting [4]) it was 5630 nM.

In the case of `FC(F)(F)Oc1ccc(-c2nc3cc(C(F)(F)F)c(Cl)cc3[nH]2)cc1` [Compound 26, 6-chloro-2-(4-(trifluoromethoxy)phenyl)-5-(trifluoromethyl)-1H-benzo[d]imidazole], the “IC50 (effects on Wnt signaling)” value with Wnt signaling was “Inactive”. Also, the IC50 is 950 nM with S2VP10 (setting [1]), 6920 nM in the experiment on S2VP10 (setting [2]), 860 nM with Suit-2 (setting [3]) and 6440 nM in the experiment with Suit-2 (setting [4]).

In the case of `FC(F)(F)c1ccc2[nH]c(-c3ccc(N4CCCCC4)cc3)nc2c1` [Compound 29, 2-(4-(piperidin-1-yl)phenyl)-5-(trifluoromethyl)-1H-benzo[d]imidazole], in the experiment with Wnt signaling, the “IC50 (effects on Wnt signaling)” value is recorded as “Inactive”. The 50% inhibitory concentration (IC50) was 1080 nM with S2VP10 (setting [1]), above 10000 nM in the experiment on S2VP10 (setting [2]), 1420 nM with Suit-2 (setting [3]) and 7560 nM with Suit-2 (setting [4]).

On to `c1cc2nc(-c3ccc(N4CCCCC4)cc3)[nH]c2cn1` [Compound 30, 2-(4-(piperidin-1-yl)phenyl)-3H-imidazo[4,5-c]pyridine], for which the “IC50 (effects on Wnt signaling)” value in the experiment on Wnt signaling is reported as “Inactive”. Also, the IC50 in the experiment with S2VP10 (setting [2]) came to 60 nM; in the experiment on Suit-2 (setting [3]), 70 nM; in the experiment with Suit-2 (setting [4]) it was 80 nM.

Take `FC(F)(F)c1cc2nc(-c3ccc(N4CCCC4)cc3)[nH]c2cc1Cl` [Compound 32, 6-chloro-2-(4-(pyrrolidin-1-yl)phenyl)-5-(trifluoromethyl)-1H-benzo[d]imidazole]: the “IC50 (effects on Wnt signaling)” value in the experiment on Wnt signaling is “Inactive”. Further, the IC50 with S2VP10 (setting [1]) worked out at 600 nM; with S2VP10 (setting [2]) it was 5200 nM; in the experiment on Suit-2 (setting [3]), 1100 nM; with Suit-2 (setting [4]), 3870 nM.

As for `Clc1cc2nc(-c3ccc(N4CCCCC4)cc3)[nH]c2nc1Cl` [Compound 33, 5,6-dichloro-2-(4-(piperidin-1-yl)phenyl)-3H-imidazo[4,5-b]pyridine], the “IC50 (effects on Wnt signaling)” value with Wnt signaling was “Inactive”. Moreover, the IC50 in the experiment on S2VP10 (setting [1]), in the experiment with S2VP10 (setting [2]), in the experiment on Suit-2 (setting [3]) and in the experiment on Suit-2 (setting [4]) was above 10000 nM in each case.

As to `Clc1cc2nc(-c3ccc(N4CCCC4)cc3)[nH]c2nc1Cl` [Compound 34, 5,6-dichloro-2-(4-(pyrrolidin-1-yl)phenyl)-3H-imidazo[4,5-b]pyridine], the “IC50 (effects on Wnt signaling)” value in the experiment with Wnt signaling was “Inactive”. The IC50 in the experiment with S2VP10 (setting [1]), with S2VP10 (setting [2]), with Suit-2 (setting [3]) and in the experiment on Suit-2 (setting [4]) was above 10000 nM each time.

For the molecule `FC(F)(F)c1cc(Cl)c2[nH]c(-c3ccc(N4CCCC4)cc3)nc2c1` [Compound 35, 7-chloro-2-(4-(pyrrolidin-1-yl)phenyl)-5-(trifluoromethyl)-1H-benzo[d]imidazole], the “IC50 (effects on Wnt signaling)” value in the experiment with Wnt signaling is given as “Inactive”. For the same molecule, the IC50 is 150 nM in the experiment on S2VP10 (setting [1]), above 10000 nM with S2VP10 (setting [2]), 240 nM in the experiment on Suit-2 (setting [3]) and 9060 nM in the experiment on Suit-2 (setting [4]).

`FC(F)(F)c1cc(Cl)c2[nH]c(-c3ccc(N4CCCCC4)cc3)nc2c1` [Compound 36, 7-chloro-2-(4-(piperidin-1-yl)phenyl)-5-(trifluoromethyl)-1H-benzo[d]imidazole]: the “IC50 (effects on Wnt signaling)” value in the experiment on Wnt signaling is given as “Inactive”. The IC50 is 2950 nM with S2VP10 (setting [1]), above 10000 nM in the experiment on S2VP10 (setting [2]), 2530 nM in the experiment on Suit-2 (setting [3]) and 8660 nM with Suit-2 (setting [4]).

As for `FC(F)(F)c1cc2nc(-c3ccc(N4CCCCC4)cc3)[nH]c2cc1Cl` [Compound 37, 6-chloro-2-(4-(piperidin-1-yl)phenyl)-5-(trifluoromethyl)-1H-benzo[d]imidazole], in the experiment with Wnt signaling, the “IC50 (effects on Wnt signaling)” value is on record as “Inactive”. In addition, the results for the IC50 with S2VP10 (setting [2]), in the experiment on Suit-2 (setting [3]) and in the experiment with Suit-2 (setting [4]) were 9250 nM, 550 nM and 5330 nM, respectively.

For orientation: IC50 means the midpoint of a concentration-inhibition curve.
